Test results taken from US9566252B2, “Method for the alleviation of dyspareunia in women” (HORMOS MEDICAL LTD., priority 2000, dated 2017).
Read-outs that look alike come from different tables or passages of the source.

Key:
vaginal dryness = assay: Vaginal dryness symptoms by visual analogue scale (subjective estimates); format: in vivo, healthy postmenopausal female volunteers; conditions: FIG. 2; for Effect on vaginal dryness, individuals' subjective estimate (visual analogue scale): change pre-treatment to 3 months, all ospemifene dosage levels (30, 60, 90 mg daily), raloxifene 60 mg daily
Protocol: The vaginal dryness symptoms were also assessed by using a visual analogue scale where the volunteers themselves recorded their subjective estimates. The scale is based on a 100-mm line on paper. The left end represents no symptom and the right end the worst possible symptom. The change from pre-treatment to 3 months estimates was assessed and considered to be indicative of the treatment efficacy.

[1] = clinical studies
Protocol: (§1) Tolerability and pharmacokinetics were also assessed.

endometrium = conditions: for Increase in thickness of the endometrium, average: statistically not significant
Protocol: as §1

vaginal epithelium = conditions: for Change in maturity index for superficial cells (MI 3), mean: index 100 full estrogen, index 0 no estrogenicity; for Change in maturity index for parabasal cells (MI 1), mean: index 100 no estrogenicity, index 0 full estrogen; for Pathological changes in cervical smear samples: 3 months' treatment, any sample; for Change from baseline to post-treatment in karyopyknosis index for superficial cells, individual subjects: ospemifene 30, 60, 90 mg daily, raloxifene 60 mg daily, all cases except one
Protocol: Raloxifene (60 mg daily) was used as reference. […] There were 29 volunteers at each dose level, as well as in the raloxifene group. Ospemifene was administered in gelatine capsules containing either 30, 60 or 90 mg of ospemifene. […] The vaginal epithelium was assessed by karyopyknosis index which is a well known assessment method among the skilled persons. In this method, the vaginal fraction of the cervical smears is estimated as the percentage of the number of cells from different layers: the parabasal cell layer; the intermediate cell layer; and the superficial cell layer. Estrogenicity is seen by a shift towards superficial cell fraction. […] Samples were taken before and after the treatment (at 3 months).

sexual activity = conditions: of 70 patients followed up for 6 weeks
Excerpt: In the clinical study, where the effects of ospemifene on quality of life and cardiovascular parameters were studied, the patients were asked for sexual activity. The questionnaire included “worsening” or “no effect” on sexual activity. Improvement on sexual activity was not asked. When 70 patients had been followed up for 6 weeks, 27 of them had spontaneously reported to the investigators increased sexual activity. Similar reports were independently obtained from different centers of the study.

[2] = 30 mg daily perorally, 3 months
[3] = 60 mg daily perorally, 3 months
[4] = 90 mg daily perorally, 3 months

OCCOc1ccc(/C(=C(/CCCl)c2ccccc2)c2ccccc2)cc1 [Ospemifene, (deaminohydroxy)toremifene]
Effect on vaginal dryness, comparison of dose levels (vaginal dryness; 60 mg daily, 3 months): best result
Effect on vaginal dryness, individuals' subjective estimate (visual analogue scale) (vaginal dryness): clear decreasing effect
Tolerability [1]: excellent tolerability
Increase in thickness of the endometrium, average (endometrium; 30 mg daily, 3 months): 0.2 mm
Increase in thickness of the endometrium, average (endometrium; 60 mg daily, 3 months): 0.5 mm
Increase in thickness of the endometrium, average (endometrium; 90 mg daily, 3 months): 0.5 mm
Estrogenic effect on endometrial histology (endometrium; 30, 60, 90 mg daily, 3 months): weak estrogenic effect
Malignant findings in the endometrium (endometrium; 30, 60, 90 mg daily, 3 months): no malignant findings
Measured values of endometrial thickness (endometrium; 30, 60, 90 mg daily, all measured values): smaller than 8 mm
Change in maturity index for superficial cells (MI 3), mean (vaginal epithelium; [2]): +12.4
Change in maturity index for parabasal cells (MI 1), mean (vaginal epithelium; [2]): −40
Change in maturity index for superficial cells (MI 3), mean (vaginal epithelium; [3]): +5.5
Change in maturity index for parabasal cells (MI 1), mean (vaginal epithelium; [3]): −26
Change in maturity index for superficial cells (MI 3), mean (vaginal epithelium; [4]): +12.5
Change in maturity index for parabasal cells (MI 1), mean (vaginal epithelium; [4]): −48
Pathological changes in cervical smear samples (vaginal epithelium): No pathological changes
Change from baseline to post-treatment in karyopyknosis index for superficial cells, individual subjects (vaginal epithelium; 12 weeks' treatment): < 40
Estrogenic effect in the cervical smear (vaginal epithelium; 30, 60, 90 mg daily, 3 months): weak but statistically significant estrogenic effect
Effect on vaginal atrophy (vaginal epithelium; 30, 60 and 90 mg daily, 3 months, elderly female volunteers): significant decrease in vaginal atrophy
Increase in karyopyknosis index for superficial cells, single highest case (vaginal epithelium; one case in the 90 mg group, 12 weeks' treatment): 45
Patients spontaneously reporting increased sexual activity (sexual activity): 27

O=C(c1ccc(OCCN2CCCCC2)cc1)c1c(-c2ccc(O)cc2)sc2cc(O)ccc12 [Raloxifene, raloxifene, reference compound]
Effect on vaginal dryness, individuals' subjective estimate (visual analogue scale) (vaginal dryness): only a minor decrease
Change in maturity index for superficial cells (MI 3), mean (vaginal epithelium; [3]): −0.3
Change in maturity index for parabasal cells (MI 1), mean (vaginal epithelium; [3]): −2
Pathological changes in cervical smear samples (vaginal epithelium): No pathological changes
Change from baseline to post-treatment in karyopyknosis index for superficial cells, individual subjects (vaginal epithelium; 12 weeks' treatment): no one in the raloxifene group (FIG. 1D) had a significant change
